Reference: patent publication EP0739343B1, “WATER SOLUBLE ONIUM SALT OF TAXO-DITERPENOID” (THE SCRIPPS RESEARCH INSTITUTE, priority 1994, dated 1995)

What was measured:
tubulin = assay: Tubulin (microtubule) polymerization-depolymerization measurement, turbidity at 340 nm; type: biochemical; conditions: for calcium chloride promoted depolymerization is suppressed: tubulin 1.0 mg/mL, 1.0 mM GTP, compound 10^-6 M, CaCl2 0.25 mM added after 20 minutes, 37°C
Description: Tubulin polymerization-depolymerization measurements are illustrate in Figure 3. Negative controls are shown with triangles; positive taxol controls are shown with diamonds; and taxol-2'-MPT, i.e., compound 2 is shown with dots.
More particularly, measurement were performed in 96 well plates at 37°C following the protocol of R. Merlock and W. Wrasidlo (Analytical Biochemistry 1993, in press). Calcium chloride addition is indicated by the arrow. In each case, 1.0 mM GTP was used to promote the initial polymerization of tubulin. Negative control employed tubulin (1.0 mg/mL) alone, CaCl2 (0,25 mM) added after 20 minutes. Positive taxol control employed tubulin (1.0 mg/mL) with taxol (10^-6M) and CaCl2 (0.25mM) added after 20 minutes. The experimental taxol-2'-MPT employed tubulin (1.0 mg/mL) with taxol-2'-MPT (10^-6) and CaCl2 (0.25 mM) added after 20 minutes. Turbidity was measured as optical density at 340 nm using a microplate reader (Molecular Devices Thermomax).

[1] = Stability and taxol release in the solid state and aqueous media, assayed by HPLC; type: physicochemical
Description: (§1) Due to a difference in retention time using our standard HPLC conditions (see Fig. 1) and differing ultraviolet absorption maxima (1280/1254 = 1.6 for 2 and 0.3 for 1), the stability of 2 was easily assayed by HPLC (Fig. 1). […] In phosphate buffered saline (PBS) or ammonium acetate - phosphate buffer systems of pH 6.0 to 7.3, 2 is stable at 25 °C for over 21 days. Taxol-2'-MPT (2) is, however, unstable in 5% HCl (pH 1.1) and brine.
(§2) Under these conditions 20% of total is recovered. More particularly, Taxol-2'-MPT (2) was dissolved in the aqueous system with the aid of sonication for five minutes. Aliquots were then removed at the times shown and partitioned into methylene chloride to quench the reaction. Samples were then analyzed using a Waters Maxima HPLC instrument equipped with an autoinjector (3.9x300 mm C18 column equipped with a precolumn. The flow rate was 1.5 mL/minute. The eluent gradient A-B extended over 30 minutes. "A" was 80% 80mM ammonium acetate, pH 6.0. "B" was 100% methanol. An ultraviolet diode array detector was employed. The ratio of compound 2 (Rf 16.2 min.) to taxol (compound 1, Rf 16.8 min.) remaining was determined from the relative areas of the peaks after normalization with previously determined calibration curves.

[2] = Taxol release from the prodrug in plasma, methylene chloride extraction and HPLC; type: in vitro ADME, human
Description: as §1, §2

[3] = Metabolic study using the tritiated compound; type: in vivo; conditions: tritiated 2
[4] = Critical aggregation concentration by UV absorption (optical density) at 340 nm; type: physicochemical; conditions: buffered solutions, absorption at 340 nm
albumin = albumin (Homo sapiens, UniProt P02768); conditions: serum; cited from earlier work
physchem = conditions: water
[5] = in water, 5% dextrose, and 1.5% saline

albumin, sequence (P02768 25-609): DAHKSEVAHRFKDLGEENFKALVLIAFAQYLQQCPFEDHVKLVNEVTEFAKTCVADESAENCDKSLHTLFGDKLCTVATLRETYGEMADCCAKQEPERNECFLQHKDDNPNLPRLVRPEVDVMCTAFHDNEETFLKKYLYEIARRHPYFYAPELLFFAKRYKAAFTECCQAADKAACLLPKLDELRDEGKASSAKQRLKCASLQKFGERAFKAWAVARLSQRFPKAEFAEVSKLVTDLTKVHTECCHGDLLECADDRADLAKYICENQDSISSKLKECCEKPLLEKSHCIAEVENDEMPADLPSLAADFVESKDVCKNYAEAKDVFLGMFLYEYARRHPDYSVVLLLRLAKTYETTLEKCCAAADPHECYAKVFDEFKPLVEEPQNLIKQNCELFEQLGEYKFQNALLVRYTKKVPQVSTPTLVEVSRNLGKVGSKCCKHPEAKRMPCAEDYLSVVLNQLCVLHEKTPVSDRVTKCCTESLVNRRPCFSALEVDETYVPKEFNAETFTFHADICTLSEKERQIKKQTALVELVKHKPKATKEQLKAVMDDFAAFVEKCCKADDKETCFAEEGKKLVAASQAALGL

| stability ([1]; 5% HCl (pH 1.1) and brine) | stability in the solid state ([1]; -80 °C to 25 °C, regardless of inert atmosphere) | stable for ([1]; PBS or ammonium acetate - phosphate buffer systems of pH 6.0 to 7.3, 25 °C) | begins to exhibit slow degradation after [1, 5] | stability [1, 5] | taxol release ([1]; sterile water, pH 6.2 phosphate buffered saline, or 5% dextrose, 25°C, period of 11 minutes) | stability when incubated with human plasma ([2]; 37°C, human plasma) | complete conversion of 2 into taxol (1) ([2]; plasma treated with compound 2, methylene chloride extraction) | excreted through the kidneys [3] | critical concentration (exponential increase in optical density) [4] | SMILES | effect on tubulin-microtubule equilibria (tubulin; buffered aqueous environment of the assay, 2 not converted to taxol) | calcium chloride promoted depolymerization is suppressed (tubulin) | microtubule stabilization (tubulin; taxol recovered from human plasma treated with 2) | Partition Coefficient [octanol]/[water] | bind to albumin in sera (albumin) | solubility (physchem) |
| --- | --- | --- | --- | --- | --- | --- | --- | --- | --- | --- | --- | --- | --- | --- | --- | --- |
| unstable | completely stable | over 21 days | 4 days | stable for several days | no taxol release is observed | breaks down rapidly | ≤ 10 min | 5% | 400 µM | CC(=O)O[C@H]1C(=O)[C@@]2(C)[C@H]([C@H](OC(=O)c3ccccc3)[C@]3(O)C[C@H](OC(=O)[C@H](Oc4cccc[n+]4C)[C@@H](NC(=O)c4ccccc4)c4ccccc4)C(C)=C1C3(C)C)[C@]1(OC(C)=O)CO[C@@H]1C[C@@H]2O [compound 2, Taxol-2'-MPT] | does not affect the tubulin-microtubule equilibria | not |  |  |  |  |
|  |  |  |  |  |  |  |  |  |  | CC(=O)O[C@H]1C(=O)[C@@]2(C)[C@H]([C@H](OC(=O)c3ccccc3)[C@]3(O)C[C@H](OC(=O)[C@H](O)[C@@H](NC(=O)c4ccccc4)c4ccccc4)C(C)=C1C3(C)C)[C@]1(OC(C)=O)CO[C@@H]1C[C@@H]2O [taxol, Taxol] |  | suppressed | exhibited the expected microtubule stabilization | > 10000 | ca. 85% | < 1.5 µM |
